Laboratory results: patent US10925890B2, “Use of dextran sulfate” (TX MEDIC AB, priority 2014, dated 2021)
Entries after “also recorded” stand apart in the source; their conditions may differ.

Experiments:
Type in all cases: in vivo
[1] = test system: rat model of myocardial infarction; assay: SMA vascular density count, rat myocardial infarction model; details: group 2M, 15 mg/kg 3 times/week for 3 weeks; 35 days after MI induction; infarct region
Protocol: On the day of surgery the animals were anesthetized with a combination of 90 mg/kg ketamine and 10 mg/kg xylazine. In order to induce MI, under anesthesia and analgesia, the rat chest was opened by left thoracotomy, the pericardium was removed and the proximal left coronary artery was permanently occluyded with an intramural stitch (Circulation 117, 1388-1396 (2008)). Two hours post surgery, each animal in all treated groups were injected s.c. with dextran sulfate or saline vehicle according to Table 11.
For the purpose of MI size identification, Masson's Trichrome Staining was used. Nine hearts of a treated (2M) group and eight of the untreated (1M) group were sectioned transversely into five sections that were imbedded in paraffin. Five paraffin sections at 5 μm were performed on a Lika microtome. All sections were stained according to standard Masson's trichrome protocol. The sections were visualized in a computer-imaging system and infarct size was marked and calculated using the ImageJ program. Infarct size was expressed as percentage of infarct area (unstained) versus the total left ventricle area. For each animal, five serial sections including one containing the ligature were analyzed and the mean value of all sections for each heart was calculated. Immunohistobchemistry marker (Smooth Muscle Actin—SMA) was used for evaluating the vascular density count. […]

[2] = Body weight, tMCAO rat-stroke study; details: 30 mg/kg 3 times a week or 15 mg/kg daily s.c., 28 days
From the text: In total 46 male SD rats having an average body weight of 342 g at study initiation (Day 0) were obtained from Harlan Laboratories, Israel. The minimal and maximal weight recorded in each group was within a range of ±20% of the group mean weight. Animals were handled according to guidelines of the National Institute of Health (NIH) and the Association for Assessment and Accreditation of Laboratory Animal Care (AAALAC). Animals were housed in polyethylene cages (5/cage) measuring 35×30×15 cm, with stainless steel top grill facilitating pelleted food and drinking water in plastic bottle; bedding: steam sterilized clean paddy husk (Harlan, Sani-chip cat #:2018SC+F) was used and bedding material was changed along with the cage at least twice a week. Animals were fed ad libitum a commercial rodent diet (Teklad Certified Global 18% Protein Diet cat #: 106S8216). Animals had free access to autoclaved and acidified drinking water (pH between 2.5 and 3.5) obtained from the municipality supply. Animals were housed under standard laboratory conditions, air-conditioned and filtered (HEPA F6/6) with adequate fresh air supply (Minimum 15 air changes/hour). Animals were kept in a climate-controlled environment. Temperatures range was 20-24° C. and RH range was 30-70% with 12 hours light and 12 hours dark cycle. […]

[3] = test system: Rat Hind-Limb Ischemia Model; assay: Blood flow by non-contact LASER Doppler, rat hind-limb ischemia; details: for Mean change in blood flow from Day 0 to Day 28: vehicle 14.8
Protocol: The femoral artery and vein were ligated twice with 4-0 silk thread and transected between the ligatures. The wound was closed with 3-0 silk thread and the rats were allowed to recover.
Animals in group 4M and 5M were injected s.c. once on Day 8, see Table 12.
Blood flows in legs from both sides were measured with a non-contact LASER Doppler before surgery on Day −1 and on Days: 1, 7, 14, 21 and 28 post operation. Blood flow measurements were expressed as the ratio of the flow in the ischemic limb to that in the normal limb.

tMCAO rat-stroke model = assay: Forelimb placing test, tMCAO rat
Protocol: Transient middle cerebral artery occlusion was performed according to the method previously described in Stroke 29, 2162-2170 (1998). The right common carotid artery (CCA) was exposed through a midline neck incision and carefully dissected free from surrounding nerves and fascia—from its bifurcation to the base of the skull. The occipital artery branches of the external carotid artery (ECA) were then isolated, and these branches were dissected and coagulated. The ECA was dissected further distally and coagulated along with the terminal lingual and maxillary artery branches, which was then divided. The internal carotid artery (ICA) was isolated and carefully separated from the adjacent vagus nerve, and the pterygopalatine artery was ligated close to its origin with a 5-0 nylon suture (SMI, Belgium). Next a 4-0 silk suture was tied loosely around the mobilized ECA stump, and a 4 cm length of 4-0 monofilament nylon suture (the tip of the suture was blunted by using a flame, and the suture was coated with polylysine, prior to insertion) was inserted through the proximal ECA into the ICA and thence into the circle of Willis, effectively occluding the MCA. […]
For each subtest, animals were scored as followed: • 0.0=immediate response • 0.5=response within 2 seconds • 1.0=response of 2-3 seconds • 1.5=response of >3 seconds • 2.0=no response

[4] = test system: Rat Hind-Limb Ischemia Model; assay: Immunohistochemistry, SMA and Factor 8 capillaries density, rat hind-limb ischemia; details: groups 2M-5M vs control 1M; Day 28
Protocol: Four sections of muscle samples were taken from the same areas of six animals from groups 1M, 2M, 3M, 4M, 5M and stained for blood vessels using antibodies against SMA and Factor 8. The area of blood vessels was evaluated by using image analysis. Density was expressed as the mean number of capillaries per field of view. Total vessels represented all blood vessels in the measured area. The number of SMA and factor 8 positive capillaries in right ischemic limb was larger in all dextran sulfate treated groups 2M-5M compared to the control group 1M on Day 28 of the study, see FIG. 23. SMA and factor 8 positive staining are considered as an indication for small capillaries formation in rats, and thus the obtained results supported blood flow improvement observed in the animal groups treated with dextran sulfate. Statistical analysis performed using two-way ANOVA followed by Bonferroni multiple comparisons, */** indicate p<0.0510.01.

In the case of Dextran sulfate, the “SMA capillary density compared to vehicle control” value [1] was “higher SMA capillary density; also recorded: trend of increase in capillaries density”, the “Body weight, differences among treatment groups” value [2] was “no statistically significant differences” and the “Mean change in blood flow from Day 0 to Day 28” value (from here on “Mean change in blood flow”) ([3]; group 2M, 30 mg/kg s.c. 3 times a week starting on Day 8) was 47.7%. For the same substance, the “Mean change in blood flow” value ([3]; group 3M, 30 mg/kg (as printed in Table 12) s.c. 3 times a week starting on Day 8) was 39.1%, the “Mean change in blood flow” value ([3]; group 4M, 30 mg/kg s.c. administered once) was 44.0% and the “Mean change in blood flow” value ([3]; group 5M, 3 mg/kg s.c. administered once) was 41.0%. The “Ratio of blood flow HLI-injured versus non-injured leg, treated groups vs control” value ([3]; groups 2M, 3M, 4M and 5M vs 1M, Day 14 through Day 28) was “statistically significant differences”, the “Forelimb placement test compared to vehicle control” value (tMCAO rat-stroke model; all treated rats, starting on day 14 up to day 28) was “statistically significant improvement” and the “Forelimb placement test, improvement in sensory motor deficits” value (tMCAO rat-stroke model; group 3M (15 mg/kg daily), first testing on day 7) was “reached statistical significance”. For the same substance, the “Number of SMA and factor 8 positive capillaries in right ischemic limb” value [4] was “larger”.
